The METLIN SMRT retention time set (Domingo-Almenara et al. 2019)

Experiment: gradient 5% acetonitrile 3 min, to 50% in 2 min, to 85% in 15 min, held 3 min, 100 µL/min
Conditions: column: Zorbax Extend-C18 2.1 x 50 mm; eluents: water / acetonitrile, 0.1% formic acid
In short: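 Mixtures of ~100 pure standards were chromatographed on a Zorbax Extend-C18 column (2.1 × 50 mm, 1.8 μm) at 100 μL/min using water and acetonitrile, each with 0.1% formic acid. Detection used a quadrupole time-of-flight mass spectrometer in positive and negative ionization mode, and data collection spanned 3 months. Retention time was obtained from adduct peaks picked computationally and each checked manually.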

Row | SMILES | RP-LC retention time
1 | O=C(c1cccnc1)N1CCC2(CC1)N=C(c1ccc(Cl)cc1)NO2 | 682 s
2 | CCn1cc(C(=O)NCc2ccc(C)o2)c2cccnc21 | 742 s
3 | CCOCC(=O)N1CCCN(C2=NS(=O)(=O)C(c3ccccc3)=C2C)CC1 | 688 s
4 | O=C(c1cc(C2CC2)[nH]n1)N1CC(F)(F)C[C@H]1c1nc(C2CC2)no1 | 794 s
5 | Cc1nc(-c2noc(-c3ccc(F)cc3)n2)cn1CC(=O)NCc1cccs1 | 814 s
6 | COc1cc(CC(=O)N2CCc3cc(-c4csc(C)n4)ccc32)cc(OC)c1 | 1020 s
7 | COCCN1CC2(CCN(S(=O)(=O)c3ccc(C)cc3)CC2)C1c1ccccc1 (centres undefined) | 693 s
8 | Cc1ccc(Cl)cc1-n1ncc2c(=O)n(Cc3nc(-c4cccc(C(F)(F)F)c4)no3)cnc21 | 1180 s
9 | CCc1cccc(NC(=O)C2CCCN(S(=O)(=O)c3c[nH]c(C(=O)N4CCCC4)c3)C2)c1 (centres undefined) | 877 s
10 | Cc1cc(C(=O)NCCc2ccc(Cl)cc2)n(-c2ccccc2)n1 | 911 s
11 | CC(C)NC(=O)c1ccc2c(c1)CCN2C(=O)C(C)C | 733 s
12 | COc1ccc(-c2nc(-c3ccc4oc(C)nc4c3)no2)cc1F | 1080 s
13 | CCOc1ccccc1CNC(=O)C1CCN(S(=O)(=O)c2cn(C(C)C)cn2)CC1 | 779 s
14 | COc1cccc(CNC(=O)c2ccc3c(c2)nc2n3CCN(Cc3ccccn3)C2=O)c1 | 626 s
15 | CCCn1cc(CCNS(=O)(=O)c2ccc(F)c(Cl)c2)c2cccnc21 | 931 s
16 | O=C(Cn1cncc(-c2nc(-c3cccs3)cs2)c1=O)Nc1cccc(Cl)c1 | 941 s
17 | O=C(NC1CC1)c1ccc(CN2CCN(Cc3ccccc3)C(=O)C2=O)cc1 | 1240 s
18 | CC(CNC(=O)C1CCN(C(=O)c2ncn3c2COC(c2ccc(F)cc2)C3)CC1)c1ccccc1 (centres undefined) | 754 s
19 | Cc1cc(C)n(-c2ccnc(N(C)Cc3ccccc3)n2)n1 | 1070 s
20 | Cc1oc(-c2[nH]ncc2C(=O)N2CCOCC2)cc1S(=O)(=O)NCC1CCCCC1 | 742 s
21 | CCc1ccc(-c2csc(Cc3nc(-c4ccc5c(c4)OCO5)no3)n2)cc1 | 1300 s
22 | Cn1cccc1C(=O)NC1CCCN(c2cc(N3CCCC3)ncn2)C1 (centres undefined) | 639 s
23 | Cc1ccc(NC(=O)Cn2cccc2-c2nnc(C3CCC3)o2)c(Cl)c1 | 1050 s

Row | SMILES | RP-LC retention time
24 | O=C(NCc1cccc(Cl)c1)C1CCCN(c2nccnc2Oc2ccccc2)C1 (centres undefined) | 1020 s
25 | Cn1cc(-c2nc(C(=O)NCc3cccs3)cs2)c2cccnc21 | 851 s
26 | CCCNC(=O)N1CC(Oc2cccc(-c3nc(C)no3)c2)C1 | 730 s
27 | CC(Cc1ccccc1)NC(N)=O (centres undefined) | 698 s
28 | Cc1noc(C)c1Cc1c(C(=O)NCC23CCCC=C2NC(=O)CC3)noc1C (centres undefined) | 726 s
29 | CC(=O)c1ccc(NC(=O)Cn2c(=O)nc(NC3CCCC3)c3ccccc32)cc1 | 635 s
30 | COc1cc(OC)c(NC(=O)C(C)Oc2ccc(=O)n(-c3ccc(F)cc3)n2)cc1Cl (centres undefined) | 844 s
31 | Cc1cccc(NC(=O)C2CCN(S(=O)(=O)c3cc(C(=O)N4CCOCC4)cs3)CC2)n1 | 648 s
32 | CCOc1cc(-c2noc(-c3nnn4c3COC(c3ccc(C)cc3C)C4)n2)ccc1OC (centres undefined) | 1250 s
33 | COc1cccc(CNC(=O)C2(C)CCN(C(=O)Nc3cc(OC)c(OC)c(OC)c3)CC2)c1 | 732 s
34 | CCOc1ccc(-c2[nH]ncc2CNS(=O)(=O)c2ccc(OC)c(Cl)c2)cc1 | 860 s
35 | CCCCOc1cc(CC2CNC(=O)N2)ccc1OC (centres undefined) | 798 s
36 | COc1ccc(-c2cn3c(CC(=O)Nc4ccccc4C(F)(F)F)csc3n2)cc1OC | 755 s
37 | COC(=O)c1ccc2c(=O)n(-c3cc(OC)cc(OC)c3)c(N3CCCC3)nc2c1 | 920 s
38 | O=c1c2cc(-c3ccccc3)nn2ccn1Cc1noc(CN2CCOCC2)n1 | 681 s
39 | CCN(CC)S(=O)(=O)c1ccc2c(c1)CC(C(=O)NC1CCCC1)N2C(C)=O (centres undefined) | 855 s
40 | OC[C@H]1OC(n2cnc3c(N[C@H]4CCC[C@@H]4O)ncnc32)[C@H](O)[C@@H]1O (some centres undefined) | 551 s
41 | CCOC(=O)C1CCN(c2cc(C)nc3nc(-c4ccc(OC)cc4)nn23)CC1 | 881 s
42 | CCOC(=O)Cc1csc(NC(=O)Cc2cc(-c3cc4ccccc4o3)on2)n1 | 891 s
43 | O=C(Nc1cccc(F)c1)C1CCCN(c2nc3ccccc3nc2C(F)(F)F)C1 (centres undefined) | 1210 s
44 | COc1ccc(-c2c(C(=O)Nc3cccc(C(C)=O)c3)nc3ccccn23)cc1 | 937 s
45 | Cc1ccccc1Nc1c(-c2cccc(Cl)c2)nc2cccc(C)n12 | 802 s
46 | O=C(NCc1ccc(F)c(Cl)c1)c1ccc(NC(=O)C2CCC2)cc1N1CCOCC1 | 909 s

Row | SMILES | RP-LC retention time
47 | Cc1cccc(-c2nnc(CC(=O)NC3CCCCC3)o2)c1 | 817 s
48 | CS(=O)(=O)c1nc2ccc(NS(=O)(=O)c3cc(F)cc(F)c3)cc2s1 | 858 s
49 | CCn1cc(S(=O)(=O)N2CCCn3nc(-c4cccs4)cc3C2)cn1 | 816 s
50 | CC(=O)N1c2ccc(S(=O)(=O)N3CCCC3)cc2CC1C(=O)Nc1c(C)cc(C)cc1C (centres undefined) | 876 s
51 | CCOc1ccc(NC(=O)N2c3ccccc3CC2c2nc(C3CC3)no2)cc1 (centres undefined) | 982 s
52 | O=C(C1CCN(c2nnc3ccccn23)CC1)N1CCN(c2ccccn2)CC1 | 543 s
53 | CSc1cccc(NC(=O)Cn2c(N3CCOCC3)nc(C)cc2=O)c1 | 694 s
54 | O=C(CN1C(=O)CCCc2cc(S(=O)(=O)N3CCCCCC3)ccc21)N1CCCCCC1 | 915 s
55 | O=C(CC1CCN(C(=O)Nc2ccc(Br)cc2)CC1)N1CCCCC1 | 830 s
56 | Cc1ccn2cc(-c3ccc(NC(=O)c4ccccc4Cl)cc3)nc2n1 | 652 s
57 | Cc1ccc(NC(=O)C2CCN(C(=O)c3ncn4c3COC(c3ccc(F)cc3)C4)CC2)cc1 (centres undefined) | 804 s
58 | CCc1nc2ccc(-c3noc(-c4ccc(C#N)cc4)n3)cc2n1CC | 716 s
59 | Cc1oc(-c2cccc(Cl)c2)nc1CN1CCN(C(=O)NC2CCCC2)CC1 | 690 s
60 | Cc1ccc(-c2nnc(-c3cccc(S(=O)(=O)NC(C)(C)C)c3)o2)cc1 | 1030 s
61 | CCn1cnc2ccc(C(=O)NC(C)C)cc2c1=O | 628 s
62 | Cc1c(C(=O)NCCOc2cccc(C(F)(F)F)c2)cccc1[N+](=O)[O-] | 893 s
63 | O=S(=O)(c1cc(-c2cc(C(F)(F)F)on2)cs1)N1CCN(c2cccc(Cl)c2)CC1 | 1300 s
64 | Cc1cc(N(C)C)nc(N2CCN(C(=O)c3ccc(C(C)(C)C)cc3)CC2)n1 | 736 s
65 | CCC(=O)c1ccc2c(c1)N(CCCN(C)C)c1ccccc1S2 | 772 s
66 | COc1ccc(N2C=C(C(=O)N3CCCC3)S(=O)(=O)c3ccc(F)cc32)cc1 | 736 s
67 | O=S(=O)(c1ccc(F)c(F)c1)N1CCC(CN2CCCCCC2)CC1 | 666 s
68 | CCn1c(=O)c(C(=O)NCc2ccc(C)o2)nc2cccnc21 | 766 s
69 | C=CCN1CCc2cc(O)c(O)cc2C(c2ccccc2)C1 (centres undefined) | 652 s

Row | SMILES | RP-LC retention time
70 | Cc1ccc(-c2nc(N3CCSCC3)ncc2C(=O)O)cc1 | 918 s
71 | Cc1nnc(-c2cc(NC(=O)c3cccc(Br)c3)c(C)s2)o1 | 938 s
72 | CCOC(=O)c1ccc(NC(=O)C23CCC(C)(C(=O)C2)C3(C)C)cc1 (centres undefined) | 897 s
73 | O=C(Nc1ccccn1)c1ccc(S(=O)(=O)NC2CCCC2)cc1 | 722 s
74 | Cc1nc2cc(-c3noc(-c4ccc(C)c(C)c4)n3)ccc2o1 | 1280 s
75 | CCc1ccc(-c2noc(CN3C(=O)COc4ccc(S(=O)(=O)CC)cc43)n2)cc1 | 1000 s
76 | CC(C)NC(=O)N1CCc2c(c(-c3nc(-c4cccc(F)c4)no3)nn2C)C1 | 853 s
77 | COC(=O)c1ccc(Cn2nc(C3CC3)c3cnn(-c4cccc(Cl)c4)c3c2=O)cc1 | 1170 s
78 | O=C(CCc1ccccc1)Nc1ccc2[nH]c(=O)oc2c1 | 713 s
79 | Cc1cc(C)cc(NC(=O)N2CCCC2c2nncn2C2CCCC2)c1 (centres undefined) | 722 s
80 | CCCCc1ccc(N2C(=O)C3N=NN(Cc4nc(-c5ccc(Cl)cc5)no4)C3C2=O)cc1 (centres undefined) | 1280 s
81 | CCOC(=O)N1CCN(C(=O)Cn2c(-c3ccccn3)nc3ccccc32)CC1 | 643 s
82 | CCC1CCCCN1C(=O)c1cnc2nc(C)ccc2c1Nc1ccccc1 (centres undefined) | 650 s
83 | Cc1ccc(S(=O)(=O)N2CCCCCC2c2nnc(C)o2)c(C)c1 (centres undefined) | 862 s
84 | CC1CN=C2C=C(N3CCN(C(=O)NCc4cccc(F)c4)CC3)N=CN21 (centres undefined) | 605 s
85 | CN(C)c1ccc(CCNC(=O)C(=O)NCc2ccc3c(c2)OCO3)cc1 | 577 s
86 | OCCNCc1ccc(-c2cccc(Cl)c2)o1 | 987 s
87 | CCc1ccc(-n2ncc3c(=O)n(Cc4nc(-c5ccccc5OC)no4)cnc32)cc1 | 1040 s
88 | Cc1cc(NC(=O)Cc2nn(C)c(=O)c3ccccc23)ccc1Br | 856 s
89 | CC(C)n1cnc2cc(CNC(=O)c3ccc(C#N)cc3F)ccc21 | 597 s
